Molecular target: T1, human sodium-dependent glucose transporter 1 (SGLT1, SLC5A1) (Homo sapiens, UniProt P13866)
T1 construct: Bases 11 to 2005 correspond to the complete coding region of human SGLT1; expressed in transfected cells
T1 sequence (P13866 1-664): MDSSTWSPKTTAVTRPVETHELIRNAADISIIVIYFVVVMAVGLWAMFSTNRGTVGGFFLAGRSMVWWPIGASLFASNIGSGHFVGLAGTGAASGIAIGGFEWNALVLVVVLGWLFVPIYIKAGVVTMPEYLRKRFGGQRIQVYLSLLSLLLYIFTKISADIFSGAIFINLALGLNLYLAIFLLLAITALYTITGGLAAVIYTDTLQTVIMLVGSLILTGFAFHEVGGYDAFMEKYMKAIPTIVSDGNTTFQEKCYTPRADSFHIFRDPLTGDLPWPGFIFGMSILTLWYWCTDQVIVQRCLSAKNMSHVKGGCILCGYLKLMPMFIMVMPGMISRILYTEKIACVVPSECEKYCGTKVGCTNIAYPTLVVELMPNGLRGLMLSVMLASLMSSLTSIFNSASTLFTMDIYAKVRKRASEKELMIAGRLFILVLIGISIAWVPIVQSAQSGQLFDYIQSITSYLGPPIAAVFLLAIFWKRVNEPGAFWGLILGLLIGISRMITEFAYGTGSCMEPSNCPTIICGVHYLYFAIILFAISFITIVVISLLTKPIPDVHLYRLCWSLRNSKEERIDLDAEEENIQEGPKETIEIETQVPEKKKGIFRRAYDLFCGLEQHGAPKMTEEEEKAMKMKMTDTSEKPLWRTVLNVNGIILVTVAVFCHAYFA
Experiment: Inhibition of the transport activity of human SGLT1 in vitro (α-MDG uptake in CHO-TRex-hSGLT1 cells)
Type: cell-based
Settings: 50 μM α-MDG, 30 min at room temperature
Source text: Inhibition of the Transport Activity of the Human Sodium-Dependent Glucose Transporter 1 (SGLT1, SLC5A1) In Vitro:
1. Cloning of an Expression Vector for Human SGLT1
The cDNA for human SGLT1 was introduced into the pcDNA4/TO vector (Invitrogen) by means of standard methods of molecular biology as described in Sambrook et al. (Molecular Cloning, A Laboratory Manual, Second Edition). […] Bases 11 to 2005 correspond to the complete coding region of human SGLT1.
2. Production of a Recombinant Cell Line with Inducible Expression of Human SGLT1
The expression vector for human SGLT1 was introduced into CHO-TRex cells (Invitrogen) by means of FuGene6 lipofection (Roche). To select single cell clones, 600 μg/ml of Zeocin (Invitrogen) was added to the cell culture medium (nutrient mixture F-12 (Ham), Invitrogen) supplemented with 10% fetal calf serum (BD Biosciences), 10 μg/ml Blasticidin S(CN Biosciences), 100 units/ml penicillin, 100 units/ml streptomycin). The functionality of the single cell clones resulting from the selection was tested via their uptake activity for radiolabeled methyl-α-D-glucopyranoside. That cell clone with the highest uptake activity for methyl-α-D-glucopyranoside, referred to hereinafter as CHO-TRex-hSGLT1, was selected for the further experiments and cultured further in the presence of 600 μg/ml Zeocin.
3. Measurement of the Inhibiting Action of Test Substances on the Uptake of methyl-α-D-glucopyranoside (α-MDG)
CHO-TRex-hSGLT1 cells were seeded in cell culture medium in a concentration of 50 000 cells per well in Cytostar-T scintillating 96-well plates (Amersham Biosciences) and cultivated for 24 h. The expression of the recombinant human SGLT1 was induced by adding 1 μg/ml tetracycline for a further 24 h. For α-MDG uptake experiments, the cells were washed with PBS and then starved at 37° C. in starvation medium (PBS supplemented with 10% fetal calf serum) for 1 hour. After a further washing step with transport assay buffer (140 mM sodium chloride, 2 mM potassium chloride, 1 mM magnesium chloride, 1 mM calcium chloride, 10 mM HEPES/Tris, pH 7.5), the cells were incubated at room temperature either in the absence or presence of test substances of different concentration for 15 min. The test substances were diluted correspondingly in transport assay buffer proceeding from a 10 mM stock solution in dimethyl sulfoxide (40 μl/well). The assay was subsequently started by adding 10 μl of a mixture of radiolabeled methyl-α-D-[U-^14C]glucopyranoside (Amersham) and unlabeled methyl-α-D-glucopyranoside (Acros). The final concentration of methyl-α-D-glucopyranoside in the assay was 50 μM. After an incubation time of 30 min at room temperature, the reaction was stopped by adding 50 μl/well of 10 mM methyl-α-D-glucopyranoside in transport assay buffer (4° C.), and the radioactivity taken up into the cells was determined in a MicroBeta Scintillation Microplate Reader (Wallac).
The half-maximum inhibiting action of the test substances (IC50 value) was determined as follows: • 4. Determination of the value for 0% inhibition. This is the measurement in the absence of substance, measured in sodium-containing transport assay buffer. • 5. Determination of the value for 100% inhibition. This is the measurement in the absence of substance, measured in sodium-free transport assay buffer (140 mM choline chloride, 2 mM potassium chloride, 1 mM magnesium chloride, 1 mM calcium chloride, 10 mM HEPES/Tris, pH7.5). • 6. Calculation of the percentage inhibition values of those measurements which were carried out in the presence of different concentrations of test substance. From this, it was then possible to determine that concentration of the test substance which reduces the uptake of the methyl-α-D-glucopyranoside by 50% (IC50 value).

Row | Structure (SMILES) | IC50
1 | CCOC(=O)OCC1OC(c2ccc(Cl)c(Cc3ccc(OC(F)(F)F)cc3)c2)C(O)C(O)C1F (centres unmarked) [Example 24] | 23 µM
2 | CCOC(=O)OCC1OC(c2ccc(F)c(Cc3ccc(OC)cc3)c2)C(O)C(O)C1(F)F (centres unmarked) [Example 10] | 13 µM
3 | CCOC(=O)OCC1OC(c2ccc(Cl)c(Cc3ccc(OC)cn3)c2)C(O)C(O)C1F (centres unmarked) [Example 35] | 4.3 µM
4 | CCOC(=O)OCC1OC(c2ccc(Cl)c(Cc3ccc(OCC)cc3)c2)C(O)C(O)C1F (centres unmarked) [Example 16] | 25 µM
5 | OC[C@H]1O[C@@H](c2ccc(Cl)c(Cc3ccc(O)cc3)c2)[C@H](O)[C@@H](O)C1(F)F [Example 30] | 1.2 µM
6 | CCc1ccc(Cc2cc(C3OC(CO)C(F)C(O)C3O)ccc2Cl)cc1 (centres unmarked) [Example 3] | 0.97 µM
7 | CCOC(=O)OCC1OC(c2ccc(OC)c(Cc3ccc(OC)cc3)c2)C(O)C(O)C1F (centres unmarked) [Example 12] | 1.5 µM
8 | CCOC(=O)OCC1OC(c2ccc(Cl)c(Cc3ccc(OCC)cc3)c2)C(O)C(O)C1(F)F (centres unmarked) [Example 18] | 42 µM
9 | CCOC(=O)OCC1OC(c2ccc(Cl)c(Cc3ccc(OC(F)(F)F)cc3)c2)C(O)C(O)C1(F)F (centres unmarked) [Example 26] | > 10 µM
10 | CCOc1ccc(Cc2cc(C3OC(CO)C(F)C(O)C3O)ccc2Cl)cc1 (centres unmarked) [Example 17] | 0.757 µM
11 | COc1ccc(Cc2cc(C3OC(CO)C(F)(F)C(O)C3O)ccc2OC)cc1 (centres unmarked) [Example 15] | 0.611 µM
12 | COc1ccc(Cc2cc(C3OC(CO)C(F)C(O)C3O)ccc2Cl)nc1 (centres unmarked) [Example 36] | 2.7 µM
13 | COc1ccc(Cc2cc(C3OC(CO)C(F)(F)C(O)C3O)ccc2F)cc1 (centres unmarked) [Example 11] | 16 µM
14 | OCC1OC(c2ccc(Cl)c(Cc3ccc(OC(F)(F)F)cc3)c2)C(O)C(O)C1F (centres unmarked) [Example 25] | 3.5 µM
15 | OCC1OC(c2ccc(Cl)c(Cc3cc4ccccc4s3)c2)C(O)C(O)C1F (centres unmarked) [Example 7] | 1.3 µM
16 | CCc1ccc(Cc2cc(C3OC(CO)C(F)(F)C(O)C3O)ccc2Cl)cc1 (centres unmarked) [Example 1] | 8 µM
17 | COc1ccc(Cc2cc(C3OC(CO)C(F)(F)C(O)C3O)ccc2Cl)cc1 (centres unmarked) [Example 22] | 1.4 µM
18 | Cc1ccc(C2OC(CO)C(F)(F)C(O)C2O)cc1Cc1ccc(O)cc1 (centres unmarked) [Example 33] | 2.6 µM
19 | COc1ccc(Cc2cc(C3OC(CO)C(F)C(O)C3O)ccc2OC)cc1 (centres unmarked) [Example 13] | 0.152 µM
20 | OCC1OC(c2ccc(Cl)c(Cc3ccc(OC(F)(F)F)cc3)c2)C(O)C(O)C1(F)F (centres unmarked) [Example 27] | 16 µM
21 | COc1ccc(Cc2cccc(C3OC(CO)C(F)C(O)C3O)c2)cc1 (centres unmarked) [Example 5] | 0.174 µM
22 | COc1ccc(Cc2cc(C3OC(CO)C(F)C(O)C3O)ccc2F)cc1 (centres unmarked) [Example 9] | 3.6 µM
23 | CCc1ccc(Cc2cc(C3OC(CO)C(F)C(O)C3O)ccc2Cl)s1 (centres unmarked) [Example 6] | 0.475 µM
24 | CCOc1ccc(Cc2cc(C3OC(CO)C(F)(F)C(O)C3O)ccc2Cl)cc1 (centres unmarked) [Example 2] | 8 µM
25 | CC(C)Oc1ccc(Cc2cc([C@@H]3O[C@H](CO)C(F)(F)[C@H](O)[C@H]3O)ccc2Cl)cc1 [Example 31] | 12 µM
26 | CCOC(=O)OCC1OC(c2ccc(F)c(Cc3ccc(OC)cc3)c2)C(O)C(O)C1F (centres unmarked) [Example 8] | 6.6 µM
27 | CCOC(=O)OCC1OC(c2ccc(Cl)c(Cc3ccc(OC)cc3)c2)C(O)C(O)C1(F)F (centres unmarked) [Example 21] | 50 µM
28 | COc1ccc(Cc2cc(C3OC(CO)C(F)(F)C(O)C3O)ccc2C)cc1 (centres unmarked) [Example 34] | 1.5 µM

Next, values leading:

Row | IC50 | Structure (SMILES)
29 | 2.6 µM | OC[C@H]1O[C@@H](c2ccc(Cl)c(Cc3ccc(Cl)cc3)c2)[C@H](O)[C@@H](O)C1(F)F [Example 46]
30 | 0.461 µM | CCc1ccc(Cc2cc(C3OC(CO)C(F)C(O)C3O)ccc2C)cc1 (centres unmarked) [Example 61]
31 | 26.5 µM | COc1ccc(Cc2cc(C3OC(CO)C(F)(F)C(O)C3O)ccc2Cl)nc1 (centres unmarked) [Example 38]
32 | 3.3 µM | COc1ccc(Cc2cc([C@@H]3O[C@H](CO)C(F)(F)[C@H](O)[C@H]3O)ccc2OC(F)(F)F)cc1 [Example 42]
33 | 0.18 µM | COc1ccc(Cc2cc(C3OC(CO)C(F)C(O)C3O)ccc2Br)cc1 (centres unmarked) [Example 56]
34 | 11.8 µM | CCOC(=O)OC[C@H]1O[C@@H](c2ccc(OC(F)(F)F)c(Cc3ccc(OC)cc3)c2)[C@H](O)[C@@H](O)C1(F)F [Example 41]
35 | 0.232 µM | COc1ccc(Cc2cc([C@@H]3O[C@H](CO)[C@@H](F)[C@H](O)[C@H]3O)ccc2OC(F)(F)F)cc1 [Example 40]
36 | 22.8 µM | CCOC(=O)OC[C@H]1O[C@@H](c2ccc(OC(F)(F)F)c(Cc3ccc(OC)cc3)c2)[C@H](O)[C@@H](O)[C@@H]1F [Example 39]
37 | 23.4 µM | CCOC(=O)OCC1OC(c2ccc(Cl)c(Cc3ccc(OC)cn3)c2)C(O)C(O)C1(F)F (centres unmarked) [Example 37]
38 | > 100 µM | CCOC(=O)OC[C@H]1O[C@@H](c2ccc(C(F)(F)F)c(Cc3ccc(OC)cc3)c2)[C@H](O)[C@@H](O)C1(F)F [Example 49]
39 | 0.24 µM | COc1ccc(Cc2cc([C@@H]3O[C@H](CO)[C@@H](F)[C@H](O)[C@H]3O)ccc2C(F)(F)F)cc1 [Example 48]
40 | 0.331 µM | OC[C@H]1O[C@@H](c2ccc(Cl)c(Cc3ccc(Cl)cc3)c2)[C@H](O)[C@@H](O)[C@@H]1F [Example 44]
41 | 7.3 µM | COc1ccc(Cc2cc([C@@H]3O[C@H](CO)C(F)(F)[C@H](O)[C@H]3O)ccc2C(F)(F)F)cc1 [Example 50]
